Laboratory results reported in US20250255867A1 (Kadmon Corporation, LLC, priority 2022, published 2025).
Structures can show the parent of a compound that is named as a salt.

Tests used:
[1] = Example 1: plasma pharmacokinetics (Cmax, Tmax, AUC0-6 hr) of belumosudil and metabolites; assay type: in vivo, human
Description: Cmax was the maximum observed plasma concentration, obtained by a non-compartmental analysis. […] Timeframe: Cycles 1 and 2: pre-dose (0 hour), 1, 2, 3, 4, 5, and 6 hours post-dose on Day 1. […] Here, ‘number analyzed’=participants with available data for each specified category.
Tmax was defined as time to reach maximum observed plasma concentration, obtained by a non-compartmental analysis. […] Timeframe: Cycles 1 and 2: pre-dose (0 hour), 1, 2, 3, 4, 5, and 6 hours post-dose on Day 1. Analysis was performed on PK population. Here, ‘number analyzed’=participants with available data for each specified category.
AUC0-6 hr was defined as area under the plasma concentration versus time curve from time 0 to 6 hours post-dose, obtained by a non-compartmental analysis from the concentration-time data. […] Timeframe: Cycles 1 and 2: pre-dose (0 hour), 1, 2, 3, 4, 5, and 6 hours post-dose on Day 1. Analysis was performed on PK population. Here, ‘number analyzed’=participants with available data for each specified category.

[2] = Solubility of belumosudil mesylate; assay type: physicochemical
[3] = Cohort 1: Belumosudil 200 mg QD, Cycle 1 Day 1
[4] = Cohort 1: Belumosudil 200 mg QD, Cycle 2 Day 1
[5] = Cohort 2: Belumosudil 200 mg BID, Cycle 1 Day 1
[6] = Cohort 2: Belumosudil 200 mg BID, Cycle 2 Day 1
[7] = Cohort 3: Belumosudil 400 mg QD, Cycle 1 Day 1
[8] = Cohort 3: Belumosudil 400 mg QD, Cycle 2 Day 1

## O=C(O)COc1cccc(-c2nc(Nc3ccc4[nH]ncc4c3)c3ccccc3n2)c1 [KD025m2]
[1]; [3]
  Area Under the Plasma Concentration Versus Time Curve From Time 0 to 6 Hours Post-dose (AUC0-6 hr), Geometric Mean (Geometric Coefficient of Variation): 565 (90.8%) hours*nanograms per milliliter
  Maximum Observed Plasma Concentration (Cmax), Geometric Mean (Geometric Coefficient of Variation): 208 (93.1%) nanograms per milliliter
[1]; [4]
  Area Under the Plasma Concentration Versus Time Curve From Time 0 to 6 Hours Post-dose (AUC0-6 hr), Geometric Mean (Geometric Coefficient of Variation): 471 (145%) hours*nanograms per milliliter
  Maximum Observed Plasma Concentration (Cmax), Geometric Mean (Geometric Coefficient of Variation): 158 (150%) nanograms per milliliter
[1]; [5]
  Area Under the Plasma Concentration Versus Time Curve From Time 0 to 6 Hours Post-dose (AUC0-6 hr), Geometric Mean (Geometric Coefficient of Variation): 282 (125%) hours*nanograms per milliliter
  Maximum Observed Plasma Concentration (Cmax), Geometric Mean (Geometric Coefficient of Variation): 99.2 (112%) nanograms per milliliter
[1]; [6]
  Area Under the Plasma Concentration Versus Time Curve From Time 0 to 6 Hours Post-dose (AUC0-6 hr), Geometric Mean (Geometric Coefficient of Variation): 513 (122%) hours*nanograms per milliliter
  Maximum Observed Plasma Concentration (Cmax), Geometric Mean (Geometric Coefficient of Variation): 145 (147%) nanograms per milliliter
[1]; [7]
  Area Under the Plasma Concentration Versus Time Curve From Time 0 to 6 Hours Post-dose (AUC0-6 hr), Geometric Mean (Geometric Coefficient of Variation): 1150 (97.1%) hours*nanograms per milliliter
  Maximum Observed Plasma Concentration (Cmax), Geometric Mean (Geometric Coefficient of Variation): 388 (82.3%) nanograms per milliliter
[1]; [8]
  Area Under the Plasma Concentration Versus Time Curve From Time 0 to 6 Hours Post-dose (AUC0-6 hr), Geometric Mean (Geometric Coefficient of Variation): 923 (144%) hours*nanograms per milliliter
  Maximum Observed Plasma Concentration (Cmax), Geometric Mean (Geometric Coefficient of Variation): 265 (154%) nanograms per milliliter

## CC(C)NC(=O)COc1cccc(-c2nc(Nc3ccc4[nH]ncc4c3)c3ccccc3n2)c1 [Belumosudil mesylate, 2-{3-[4-(1H-indazol-5-ylamino)-2-quinazolinyl]phenoxy}-N-(propan-2-yl) acetamide methanesulfonate (1:1)]
[2]
  Solubility in DMF: slightly soluble
  Solubility in DMSO: soluble
  Solubility in methanol: slightly soluble
  Solubility in water: practically insoluble

## NC(=O)COc1cccc(-c2nc(Nc3ccc4[nH]ncc4c3)c3ccccc3n2)c1 [KD025m1]
[1]; [3]
  Area Under the Plasma Concentration Versus Time Curve From Time 0 to 6 Hours Post-dose (AUC0-6 hr), Geometric Mean (Geometric Coefficient of Variation): 140 (72.3%) hours*nanograms per milliliter
  Maximum Observed Plasma Concentration (Cmax), Geometric Mean (Geometric Coefficient of Variation): 44.4 (67.9%) nanograms per milliliter
[1]; [4]
  Area Under the Plasma Concentration Versus Time Curve From Time 0 to 6 Hours Post-dose (AUC0-6 hr), Geometric Mean (Geometric Coefficient of Variation): 123 (38.2%) hours*nanograms per milliliter
  Maximum Observed Plasma Concentration (Cmax), Geometric Mean (Geometric Coefficient of Variation): 36.2 (43.0%) nanograms per milliliter
[1]; [5]
  Area Under the Plasma Concentration Versus Time Curve From Time 0 to 6 Hours Post-dose (AUC0-6 hr), Geometric Mean (Geometric Coefficient of Variation): 114 (60.8%) hours*nanograms per milliliter
  Maximum Observed Plasma Concentration (Cmax), Geometric Mean (Geometric Coefficient of Variation): 34.8 (58.8%) nanograms per milliliter
[1]; [6]
  Area Under the Plasma Concentration Versus Time Curve From Time 0 to 6 Hours Post-dose (AUC0-6 hr), Geometric Mean (Geometric Coefficient of Variation): 160 (31.3%) hours*nanograms per milliliter
  Maximum Observed Plasma Concentration (Cmax), Geometric Mean (Geometric Coefficient of Variation): 45.0 (38.6%) nanograms per milliliter
[1]; [7]
  Area Under the Plasma Concentration Versus Time Curve From Time 0 to 6 Hours Post-dose (AUC0-6 hr), Geometric Mean (Geometric Coefficient of Variation): 216 (61.9%) hours*nanograms per milliliter
  Maximum Observed Plasma Concentration (Cmax), Geometric Mean (Geometric Coefficient of Variation): 63.9 (59.4%) nanograms per milliliter
[1]; [8]
  Area Under the Plasma Concentration Versus Time Curve From Time 0 to 6 Hours Post-dose (AUC0-6 hr), Geometric Mean (Geometric Coefficient of Variation): 178 (72.9%) hours*nanograms per milliliter
  Maximum Observed Plasma Concentration (Cmax), Geometric Mean (Geometric Coefficient of Variation): 55.8 (82.1%) nanograms per milliliter
